Broadly, the TGI is the concentration at which net growth stops. A low value points to more potent growth arrest. As a reminder, the GI50 is the concentration giving 50% growth inhibition.

18 compounds from PubChem BioAssay (NCI) can be followed below.

What all share (assay): DTP human tumour cell line panel, 48 h
In assay [1] the test system is COLO 205 colon.
The subject of assay [2] is PC-3 prostate.
Assay [3] deals with MDA-MB-231 breast.
In assay [4] the test system is MDA-MB-435.

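Five concentrations, 48 hours, 96-well plates. The concentration for 50% growth inhibition is given as GI50. TGI: concentration producing complete growth inhibition.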

With `CCOP1(=O)OCC2OC(n3cnc4c(N)ncnc43)C(O)C2O1` (centres undefined), the TGI in assay [1], in assay [2], in assay [3] and in assay [4] was greater than 100 µM in each case.
For the compound `O=c1ccc2nc(-c3ccccc3)nn(-c3ccccc3)c-2c1`, the GI50 was 0.589 µM in assay [1], 2.14 µM in assay [2], 1.88 µM in assay [3] and 1.85 µM in assay [4]. The TGI in assay [1] turned out to be 1.8 µM; in assay [2] it was 5.71 µM; in assay [3] it was 3.84 µM; in assay [4], 4.17 µM.
`CC[C@]1(O)C[C@@H]2CN(Cc3c([nH]c4ccccc34)[C@@](C(=O)OC)(c3cc4c(cc3OC)N(C)[C@H]3[C@@](O)(C(=O)OC)[C@H](OC(C)=O)[C@]5(CC)[C@@H]6C[C@@H]6CN6CC[C@]43[C@@H]65)C2)C1`: the GI50 is 0.0298 µM in assay [1], 0.0829 µM in assay [2], 0.0761 µM in assay [3] and 0.00612 µM in assay [4]. The TGI in assay [1] is 0.252 µM; in assay [2], greater than 4.38 µM; in assay [3] it was greater than 2.61 µM; in assay [4] it was 0.0235 µM.
With `Nc1nc2nc3c(nc2c(=O)[nH]1)CN(c1ccc(C(=O)O)cc1)C3=O`, the TGI in assay [1], in assay [2], in assay [3] and in assay [4] was greater than 100 µM throughout.
Turning to `COc1ccccc1/C=C1\COc2ccc(O)c(O)c2C1=O`, the GI50 in assay [1] is 3.14 µM; in assay [2], 1.43 µM; in assay [3], 2.24 µM; in assay [4], 1.57 µM. Further, the TGI in assay [1] stood at 8.98 µM; in assay [2], 11.3 µM; in assay [3] it was 10.2 µM; in assay [4], 4.96 µM.
As to `COc1ccc(CCNc2nc3ccccc3c3[nH]c4ccccc4c23)cc1OC`, the GI50 was 1.57 µM in assay [1], 3.66 µM in assay [2], 2.21 µM in assay [3] and 1.72 µM in assay [4]. Further, the TGI was found to be 3.46 µM in assay [1], 14 µM in assay [2], 8.03 µM in assay [3] and 3.37 µM in assay [4].
Consider `Cc1ncc(C(=O)Nc2ccc(CN3CCN(C)CC3)c(C(F)(F)F)c2)cc1C#Cc1c(N)ncc2ccc(C#N)cc12`, for which the GI50 was 0.059 µM in assay [1], 4.49 µM in assay [2], 0.161 µM in assay [3] and 0.163 µM in assay [4]. For the same compound, the TGI in assay [1] turned out to be 8.05 µM; in assay [2], 19.3 µM; in assay [3] it was 1.89 µM; in assay [4], 3.31 µM.
For the compound `COC1CC(OC2OC(CO)C(O)C(O)C2O)/C(=C\C#N)C(O)C1OC` (centres undefined), the TGI in assay [1], in assay [2], in assay [3] and in assay [4] was greater than 100 µM throughout.
For the compound `CC1CN(CCO)CC(C)O1` (centres undefined), the TGI in assay [1], in assay [2], in assay [3] and in assay [4] was greater than 100 µM each time.
In the case of `C=C1C(=O)OC(CCCCCCCC)C1C(=O)O` (centres undefined), the GI50 in assay [1] was 18.2 µM; in assay [2] it was 20.2 µM; in assay [3], 17.7 µM; in assay [4], 17.6 µM. Moreover, the TGI in assay [1] is 33.7 µM; in assay [2] it was 40 µM; in assay [3], 33.2 µM; in assay [4], 40.4 µM.
As for `O=C(Nc1ccc(Cl)c(Cl)c1)Nc1ccc(Cl)c([N+](=O)[O-])c1`, the GI50 was 1.12 µM in assay [1], 0.921 µM in assay [2], 2.93 µM in assay [3] and 1.16 µM in assay [4]. Also, the TGI in assay [1] worked out at 4.9 µM; in assay [2], 3.59 µM; in assay [3], 7.09 µM; in assay [4], 4.9 µM.
For `COc1ccc(NC(=O)c2ccc(NC3=C(Cl)C(=O)N(Cc4ccccc4)C3=O)cc2)cc1`, the GI50 is 10.9 µM in assay [1], 6.74 µM in assay [2], 11.9 µM in assay [3] and 5.64 µM in assay [4]. The TGI was greater than 100 µM in assay [1], 19.9 µM in assay [2], 26.2 µM in assay [3] and 18.3 µM in assay [4].
With `FC(F)(F)c1ccc2nc(-c3nc(-c4ccccc4)n4ccccc34)[nH]c2c1`, the GI50 in assay [1] was 4.88 µM; in assay [2], 4.11 µM; in assay [3], 2.04 µM; in assay [4] it was 5.47 µM. Also, the TGI in assay [1] was greater than 100 µM; in assay [2] it was greater than 100 µM; in assay [3], 5.39 µM; in assay [4], 31.6 µM.
In the case of `Cn1cc(-c2ccc3cc(-c4ccc(CC(=O)Nc5cc(C(C)(C)C)nn5C)cc4)cnc3c2)cn1`, the GI50 in assay [1] is 0.441 µM; in assay [2], 0.36 µM; in assay [3], 0.317 µM; in assay [4], 0.309 µM. For the same compound, the total growth inhibition concentration (TGI) in assay [1], in assay [2], in assay [3] and in assay [4] was greater than 100 µM in each case.
With `COc1cc[c]([Hg][Cl])cc1`, the GI50 in assay [1] is 2.06 µM; in assay [2], 16.2 µM; in assay [3], 2.19 µM; in assay [4] it was 1.61 µM. Besides, the TGI in assay [1] is 4 µM; in assay [2], 31.8 µM; in assay [3], 4.92 µM; in assay [4], 3.2 µM.
Regarding `COc1ccc(C(=O)CC2(O)C(=O)Nc3c(Cl)ccc(Cl)c32)cc1` (centres undefined), the GI50 in assay [1] is 0.954 µM; in assay [2] it was 2.8 µM; in assay [3], 4.27 µM; in assay [4], 0.225 µM. The TGI in assay [1] was 5.3 µM; in assay [2] it was greater than 100 µM; in assay [3], greater than 92.4 µM; in assay [4] it was 0.649 µM.
Consider `CCOC(=O)c1cc2c(n1Cc1cccc(OC)c1)-c1oncc1CC2`, for which the results for the GI50 in assay [1], in assay [2] and in assay [3] were 0.508 µM, 5.19 µM and 4.87 µM, respectively. For the same compound, the figures for the TGI in assay [1], in assay [2] and in assay [3] were 3.99 µM, greater than 100 µM and greater than 100 µM, respectively.
`COc1ccc([C@H]2c3cc(OC)c(OC)cc3C=C(C=O)C2CO)cc1OC` (some centres undefined): the GI50 was 3.91 µM in assay [1], 6.74 µM in assay [3] and 0.914 µM in assay [4]. In addition, the TGI in assay [1] is 17.9 µM; in assay [3], greater than 100 µM; in assay [4] it was 2.81 µM.
